What all share (assay): Competitive binding (test PAK inhibitor affinity) assay, phage-displayed kinase vs immobilized staurosporine
The target of assay [1] is PAK7 (Homo sapiens, UniProt Q9P286).
Assay [2] concerns the target PAK2 (Homo sapiens, UniProt Q13177).
In assay [3] the target is PAK4 (Homo sapiens, UniProt O96013).
The target of assay [4] is PAK6 (Homo sapiens, UniProt Q9NQU5).
Assay [5] addresses PAK1 (Homo sapiens, UniProt Q13153).

Read-outs that look alike come from different tables or passages of the source.

Sequence of PAK2 (Q13177 whole entry): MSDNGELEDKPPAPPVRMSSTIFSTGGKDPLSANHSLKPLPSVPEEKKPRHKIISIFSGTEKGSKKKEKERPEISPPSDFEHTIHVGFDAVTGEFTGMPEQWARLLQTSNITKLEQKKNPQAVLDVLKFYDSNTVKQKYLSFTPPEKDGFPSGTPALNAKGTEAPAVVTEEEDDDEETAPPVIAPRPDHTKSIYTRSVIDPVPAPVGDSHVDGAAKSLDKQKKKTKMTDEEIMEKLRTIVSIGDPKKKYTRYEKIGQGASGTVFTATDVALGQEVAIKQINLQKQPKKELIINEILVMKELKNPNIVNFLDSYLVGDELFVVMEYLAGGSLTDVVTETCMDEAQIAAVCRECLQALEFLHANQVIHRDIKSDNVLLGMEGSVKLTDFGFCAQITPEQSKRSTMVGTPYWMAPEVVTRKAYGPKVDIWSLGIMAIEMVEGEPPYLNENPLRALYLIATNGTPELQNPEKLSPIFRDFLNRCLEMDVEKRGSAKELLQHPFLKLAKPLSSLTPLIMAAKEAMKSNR
Sequence of PAK6 (Q9NQU5 whole entry): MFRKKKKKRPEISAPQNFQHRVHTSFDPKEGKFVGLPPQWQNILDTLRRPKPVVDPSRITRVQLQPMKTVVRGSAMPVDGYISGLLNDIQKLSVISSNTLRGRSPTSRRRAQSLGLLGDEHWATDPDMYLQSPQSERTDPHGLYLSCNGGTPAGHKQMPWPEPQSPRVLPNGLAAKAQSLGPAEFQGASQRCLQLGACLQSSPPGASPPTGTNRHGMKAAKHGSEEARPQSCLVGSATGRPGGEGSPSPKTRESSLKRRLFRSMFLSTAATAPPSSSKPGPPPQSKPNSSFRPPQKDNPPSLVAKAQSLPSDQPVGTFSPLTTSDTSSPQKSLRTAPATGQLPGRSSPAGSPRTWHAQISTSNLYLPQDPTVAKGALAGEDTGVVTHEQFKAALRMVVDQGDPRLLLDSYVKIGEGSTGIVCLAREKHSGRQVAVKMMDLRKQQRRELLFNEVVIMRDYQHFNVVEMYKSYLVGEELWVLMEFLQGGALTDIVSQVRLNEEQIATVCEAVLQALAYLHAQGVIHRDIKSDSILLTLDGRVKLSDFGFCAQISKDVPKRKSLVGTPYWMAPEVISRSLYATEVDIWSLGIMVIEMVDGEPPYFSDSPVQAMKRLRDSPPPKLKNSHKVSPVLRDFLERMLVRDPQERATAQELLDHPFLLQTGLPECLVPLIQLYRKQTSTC
Sequence of PAK1 (Q13153 whole entry): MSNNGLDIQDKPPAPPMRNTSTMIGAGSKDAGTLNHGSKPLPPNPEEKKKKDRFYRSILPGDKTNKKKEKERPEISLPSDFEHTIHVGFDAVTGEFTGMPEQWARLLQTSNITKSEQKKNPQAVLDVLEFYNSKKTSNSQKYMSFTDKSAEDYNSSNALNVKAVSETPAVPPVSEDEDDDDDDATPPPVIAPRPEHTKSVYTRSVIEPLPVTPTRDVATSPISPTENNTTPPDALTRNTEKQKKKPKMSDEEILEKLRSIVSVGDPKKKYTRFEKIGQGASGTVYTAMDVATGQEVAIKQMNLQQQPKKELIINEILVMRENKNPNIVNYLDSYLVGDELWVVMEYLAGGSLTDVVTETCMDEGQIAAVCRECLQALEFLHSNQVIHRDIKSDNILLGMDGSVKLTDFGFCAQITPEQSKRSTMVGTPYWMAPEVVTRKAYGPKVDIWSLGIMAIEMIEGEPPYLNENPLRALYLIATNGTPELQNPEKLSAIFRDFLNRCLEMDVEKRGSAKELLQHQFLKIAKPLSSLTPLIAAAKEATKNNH
Sequence of PAK4 (O96013 whole entry): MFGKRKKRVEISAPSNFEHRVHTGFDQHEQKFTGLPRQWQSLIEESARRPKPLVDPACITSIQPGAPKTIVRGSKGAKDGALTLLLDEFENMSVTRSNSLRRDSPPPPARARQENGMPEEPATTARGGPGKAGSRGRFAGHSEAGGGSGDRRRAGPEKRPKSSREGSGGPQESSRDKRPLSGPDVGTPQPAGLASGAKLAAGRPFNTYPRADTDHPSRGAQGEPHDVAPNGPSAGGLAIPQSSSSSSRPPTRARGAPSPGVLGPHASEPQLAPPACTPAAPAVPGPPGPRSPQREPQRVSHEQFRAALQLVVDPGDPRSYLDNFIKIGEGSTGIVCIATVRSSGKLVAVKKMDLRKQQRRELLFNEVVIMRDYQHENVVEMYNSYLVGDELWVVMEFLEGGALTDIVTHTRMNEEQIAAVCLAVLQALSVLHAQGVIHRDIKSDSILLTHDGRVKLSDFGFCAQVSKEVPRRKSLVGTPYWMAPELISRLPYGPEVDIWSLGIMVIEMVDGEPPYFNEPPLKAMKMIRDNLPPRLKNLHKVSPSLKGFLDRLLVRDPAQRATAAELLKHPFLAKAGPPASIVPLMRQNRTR
Sequence of PAK7 (Q9P286 whole entry): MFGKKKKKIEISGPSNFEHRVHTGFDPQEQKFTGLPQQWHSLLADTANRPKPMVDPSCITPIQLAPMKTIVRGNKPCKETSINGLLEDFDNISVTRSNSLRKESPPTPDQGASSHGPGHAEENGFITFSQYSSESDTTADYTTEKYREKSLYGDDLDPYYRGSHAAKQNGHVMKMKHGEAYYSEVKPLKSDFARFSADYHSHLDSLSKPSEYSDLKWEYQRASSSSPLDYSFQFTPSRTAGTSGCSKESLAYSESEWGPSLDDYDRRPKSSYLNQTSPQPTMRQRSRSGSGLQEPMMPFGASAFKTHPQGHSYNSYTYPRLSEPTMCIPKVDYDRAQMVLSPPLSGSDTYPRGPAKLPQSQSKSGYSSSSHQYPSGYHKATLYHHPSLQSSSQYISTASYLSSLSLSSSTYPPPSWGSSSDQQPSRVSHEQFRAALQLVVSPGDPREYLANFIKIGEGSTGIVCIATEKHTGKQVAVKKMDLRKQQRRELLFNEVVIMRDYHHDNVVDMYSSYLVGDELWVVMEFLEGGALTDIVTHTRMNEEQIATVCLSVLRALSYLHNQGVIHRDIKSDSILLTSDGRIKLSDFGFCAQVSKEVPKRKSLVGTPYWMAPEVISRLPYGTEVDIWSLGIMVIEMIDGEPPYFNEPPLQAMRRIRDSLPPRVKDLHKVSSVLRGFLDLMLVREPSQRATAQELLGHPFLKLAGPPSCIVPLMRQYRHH

With `CCOc1cc2ncc(C#N)c(Nc3ccc(F)c(Cl)c3)c2cc1NC(=O)/C=C/CN(C)C` [EKB-569], the Kd was at least 10 µM in assay [1]; at least 10 µM in assay [2] (read-out: Kd); at least 10 µM in assay [3]; at least 10 µM in assay [4]; under 5 µM in assay [5] (read-out: Kd).

`Nc1nc(Nc2ccc(S(N)(=O)=O)cc2)nn1C(=O)c1c(F)cccc1F` [JNJ-7706621]: the Kd in assay [2] was at least 10 µM; in assay [4], under 5 µM; in assay [5], at least 10 µM.
